Measured values published in patent publication US11576981B2, “Acyl hydrazone linkers, methods and uses thereof” (Ontario Institute for Cancer Research (OICR), priority 2017, dated 2023).
pIC50: −log10 of the molar value.

Assays:
[1] = Half-life of model acyl hydrazones in a simulated lysosomal environment (pH 4.5); assay type: physicochemical; settings: read-out: Acidic (pH 4.5) Half life
Excerpt: Towards the goal developing enhanced control of ADC linker stability, several model cyclic acyl hydrazones whose lability is modulated either by steric or stereoelectronic effects have been prepared. Exemplary acyl hydrazones containing a substituted phenyl group adjacent to the imine carbon have been synthesized. Starting with the acyl hydrazone structure (D) present in Mylotarg, the adjacent steric and electronic environments in model linker compounds were varied and their half-life tested in a simulated lysosomal environment (pH 4.5), as shown in Table 1. […] On the other hand, incorporation of a methoxy group in the same position (as in G) rendered the cyclic hydrazone very labile with a half-life of only 2 min.

[2] = Stability of acyl hydrazones on incubation in human plasma; assay type: in vitro ADME; settings: 6 days incubation in human plasma; remaining parent acyl hydrazone
Description: In addition, for an ADC to have a better therapeutic window, ideally it should be stable in plasma and having the payload released only upon entry to the target cells. Thus targeted cytotoxicity would be mostly confined to the diseased cells of interest. Starting with the acyl hydrazone structure (D) present in Mylotarg, the adjacent steric and electronic environments were varied in model linker compounds and their stability was tested in plasma.

[3] = system: SKOV3 ovarian cancer cell line; experiment: Cytotoxicity against SKOV3 (CellTiter-Glo ATP viability); assay type: cell-based; settings: ATP content
Description: SKOV3 ovarian cells are incubated with the effectors for a period corresponding to 2 to 3 times their estimated doubling time and the amount of viable cells is determine by measuring ATP content in the wells. […] All ADCs are diluted in DPBS to 6× the highest concentration tested, followed by 10 3-fold serial dilutions in DPBS for a total of 11 concentration points. Each point is added to triplicate wells. DPBS is added in wells to measure the maximum growth. Cells are diluted at their appropriate seeding density (ranging from 150 to 1000 cells per well) in complete media supplemented with glutamine 2 mM, serum and antibiotic cocktail. They are distributed in white, opaque bottom, tissue-culture treated 384 well plates and incubated for 24 hrs at 37° C.+5% CO2. […] Total ATP is measured using CellTiter-Glo reagent from Promega as recommended by the supplier. […] Signal output is measured on a luminescence plate reader (envision, Perkin Elmer) set at an integration time of 0.1 sec. […]
Each concentration point (S) is normalized to the negative control wells (NC) and expressed as % survival (NC−S/NC×100). Potency (IC50) and efficacy are calculated from a non-linear curve fit of the points versus log of the concentrations without constrain on the slope. Refined data are analysed using Prism software.

[4] = system: parental U87MG glioblastoma human tumor cell line; experiment: Cell proliferation assay (SRB), U87 parental cells; assay type: cell-based; settings: U-87 MG, 72 h
Description: (§1) The parental U87MG glioblastoma human tumor cell line (ATCC) and the corresponding cell line engineered to overexpress wt EGFR (EGFR^+ U87) (˜2M receptors per cell) were grown in DMEM medium containing 10% fetal bovine serum and 2 mM L-glutamine. Cells were inoculated into 96 well microtiter plates in 100 μL at a plating density of 4000 cells/well After cell inoculation, the microtiter plates were incubated at 37° C., 5% CO2, 95% air and 100% relative humidity. After 24 h incubation, experimental drugs were diluted to 10× the desired final maximum test concentration with complete medium and additional 10-fold or ½ log serial dilutions were made to provide a total of 6 drug concentrations plus control. Aliquots of 10 μl of these different drug dilutions were added to the appropriate microtiter wells already containing 100 μl of medium, resulting in the required final drug concentrations.
(§2) Following drug addition, the plates were incubated for an additional 72 h at 37° C., 5% CO2, 95% air, and 100% relative humidity. […] Bound stain was subsequently solubilized with 10 mM trizma base, and the absorbance was read on an automated plate reader at a wavelength of 515 nm. The growth was calculated at each of the drug concentrations levels relative to untreated cells (media only control).
(§3) Percentage growth inhibition was calculated as: [(Ti)/(C)]×100 […]

[5] = system: glioblastoma EGFR^+ U87 cell lines (U87MG engineered to overexpress wt EGFR); experiment: Cell proliferation assay (SRB), EGFR^+ U87 cells; assay type: cell-based; settings: Homo sapiens, U-87 MG, 72 h
Description: as §1, §2, §3

half-life [1] | Compound | other results
234 min | CC(C)(S)CC(=O)NN=C1CCCc2cc(OCCCC(=O)O)cc(O)c21 [Compound Ib, 4-((4-Hydroxy-5-(2-(3-mercapto-3-methylbutanoyl)hydrazono)-5,6,7,8-tetrahydronaphthalen-2-yl)oxy)butanoic acid] | –
185 min | CC(=O)N/N=C1\CCc2cccc(O)c21 [L] | % remaining after 6 days [2]: 50%
2 min | COc1cc(O)cc2c1/C(=N/NC(C)=O)CCC2 [G] | –
88 min | CC(=O)N/N=C1\CCCc2ccc(F)cc21 [K] | –
– | Synagis-SMCC-DM1: negative control ADC | pIC50 [3]: 8.02
15 min | COc1ccc(/C(C)=N/NC(C)=O)cc1 [D] | % remaining after 6 days [2]: 37%
31 min | CC(C)(S)CC(=O)N/N=C1\CCCc2cc(OCCCC(=O)O)ccc21 [Compound Ie, 4-((5-(2-(3-Mercapto-3-methylbutanoyl)hydrazineylidene)-5,6,7,8-tetrahydronaphthalen-2-yl)oxy)butanoic acid] | –
– | COc1cc2cc(c1Cl)N(C)C(=O)C[C@H](OC(=O)[C@H](C)N(C)C(=O)CCS)[C@]1(C)O[C@H]1[C@H](C)[C@@H]1C[C@@](O)(NC(=O)O1)[C@H](OC)/C=C/C=C(\C)C2 [DM1] | pIC50 [4]: 7.91; pIC50 [5]: 7.99
15 min | C/C(=N\NC(=O)CC(C)(C)S)c1ccc(OCCCC(=O)O)cc1 [Compound Ia, 4-(4-(1-(2-(3-Mercaptomethylbutanoyl) hydrazineylidene)ethyl)phenoxy) butanoic acid] | –
